Test results from patent US9358243B2, “Pharmaceutical compounds for use in the therapy of Clostridium difficile infection” (ETH Zurich, priority 2011, dated 2016).

How the values were obtained:
[1] = biological target: T1, His-tagged cysteine protease domain of C. difficile toxin B (Clostridioides difficile, UniProt P18177); experiment: Determination of EC50 in presence of 10 mM Ca2+ (cleavage of TcdB cysteine protease domain, SDS-PAGE); type: biochemical, Clostridium difficile; settings: for cleavage activity at 100 μM: 100 μM compound, 10 mM Ca2+, FIG. 1A; for activity (cleavage of TcdB CPD) in the presence of calcium, compared with IP6: in the presence of calcium (10 mM Ca2+)
T1 construct: cysteine protease domain of C. difficile toxin B
T1 sequence (P18177 544-799 limits assumed): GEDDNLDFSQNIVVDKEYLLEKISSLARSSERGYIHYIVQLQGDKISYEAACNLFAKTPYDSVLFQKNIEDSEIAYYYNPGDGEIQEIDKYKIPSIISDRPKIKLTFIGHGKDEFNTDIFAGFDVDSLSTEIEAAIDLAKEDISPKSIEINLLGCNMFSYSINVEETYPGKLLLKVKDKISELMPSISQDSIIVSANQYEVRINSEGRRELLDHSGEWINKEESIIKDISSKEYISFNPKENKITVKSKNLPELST
Method: The compound to be tested was added to a recombinant His-tagged cysteine protease domain of C. difficile toxin B of SEQ ID 1 in presence of 10 mM Ca^2+ in 100 mM Tris pH7.4 and incubated for 2 h at 37° C. Cleaved protein fragments were separated by SDS-PAGE and visualized by Coomassie staining. The extent of cleavage quantified from protein band intensities using the ImageJ software package. Signals were normalized to cleavage of positive and negative controls.

[2] = biological target: T1, His-tagged cysteine protease domain of C. difficile toxin B; experiment: Comparison of cleavage kinetics in presence of 10 mM Ca2+; type: biochemical, Clostridium difficile; settings: 37° C., FIG. 1B
Method: The compound to be tested was added to the His-tagged cysteine protease domain of C. difficile toxin B (same sequence as given above) in presence of 10 mM Ca^2+ in 100 mM Tris pH 7.4 and incubated for 24 h at 37° C., with aliquots removed at regular intervals. Cleaved protein fragments were separated, visualized and analyzed as indicated above.

| Compound | EC50 [1] [µM] | cleavage activity at 100 μM [1] | activity (cleavage of TcdB CPD) in the presence of calcium, compared with IP6 [1] | extent of cleavage after 4 h relative to IP6 [2] [fold] |
| --- | --- | --- | --- | --- |
| O=P(O)(O)O[C@H]1[C@H](OP(=O)(O)O)[C@@H](OP(=O)(O)O)[C@H](OP(=O)(O)O)[C@@H](OP(=O)(O)O)[C@H]1OP(=O)(O)O [IP6, myo-inositol hexakisphosphate, reference compound] | 601 | disappears almost completely |  |  |
| O=P(O)(O)O[C@H]1[C@H](OS(=O)(=O)O)[C@@H](OP(=O)(O)O)[C@H](OS(=O)(=O)O)[C@@H](OP(=O)(O)O)[C@H]1OS(=O)(=O)O [PSPSPS] | 20 |  |  |  |
| O=S(=O)(O)OC1C(OS(=O)(=O)O)C(OS(=O)(=O)O)C(OS(=O)(=O)O)C(OS(=O)(=O)O)C1OS(=O)(=O)O (stereo not shown) [IS6, inositolhexakissulfate] |  |  | much more active than IP6 |  |
| myo-inositol-pentakisphosphate-2-PEG(400) [(7)] |  | retains residual activity | improved ability to cleave TcdB CPD | 5 |
